The record followed here is patent US20100144708A1, “HETEROCYCLIC COMPOUNDS CONTAINING NITROGEN ATOMS OR PHARMACEUTICALLY ACCEPTABLE SALTS THEREOF, PROCESS FOR THE PREPARATION THEREOF AND PHARMACEUTICAL COMPOSITION COMPRISING THE SAME FOR TREATMENT OF CANCER” (Korea Research Instititute of Bioscience and Biotechnology, priority 2006, published 2010).

The term GI50 denotes the concentration giving 50% growth inhibition.

Common to all, as to format: cell-based, Human
One assay deals with PC-3 (prostate cancer). The assay is described as follows: Test for inhibition of tumor cell growth (SRB), PC-3. The settings on record: Homo sapiens; 48 hours, SRB staining; read-out: GI50 PC-3 (prostate ancer). In a few lines:
(§1)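 Cells seeded in RPMI 1640 with 5% FBS, exposed to compound (final […], units as printed) for 48 hours at 37° C with 5% CO2, including a time-zero plate. TCA-fixed, SRB-stained, absorbance at 540 nm as percent of control; GI50 is the 50% growth-inhibition concentration.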

In the next assay the test system is NUGC-3 (gastric cancer). The assay is described as follows: Test for inhibition of tumor cell growth (SRB), NUGC-3. As to conditions: Homo sapiens, NUGC-3; 48 hours, SRB staining. In a few lines: as §1
Another assay deals with ACHN (kidney cancer). Nature of the assay: Test for inhibition of tumor cell growth (SRB), ACHN. As to conditions: Homo sapiens, ACHN; 48 hours, SRB staining. In a few lines: as §1
Assay [1] has as its system MBA-MB-231 (breast cancer). The assay is described as follows: Test for inhibition of tumor cell growth (SRB), MBA-MB-231. As to conditions: Homo sapiens; 48 hours, SRB staining. In a few lines:
as §1
On the technique in general: Sulforhodamine B stains cellular protein and so reports cell mass.

Consider `CCCCCCCCCCCCS(=O)(=O)N1CC[N+](C)(Cc2ccccc2)CC1` [Example 81, 1-benzyl-4-(dodecane-1-sulfonyl)-1-methyl-piperazin-1-ium bromide], for which the GI50 worked out at 0.61 µg/mL in the assay on PC-3 (prostate cancer), 0.58 µg/mL in the assay on NUGC-3 (gastric cancer), 1.48 µg/mL in the assay on ACHN (kidney cancer) and 1.49 µg/mL in assay [1].

Consider `C=CC[N+]1(C)CCN(S(=O)(=O)CCCCCCCCCCCC)CC1` [Example 82, 1-allyl-4-(dodecane-1-sulfonyl)-1-methyl-piperazin-1-ium bromide], for which the 50% growth inhibitory concentration (GI50) was 0.71 µg/mL in the assay with PC-3 (prostate cancer), 0.75 µg/mL in the assay on NUGC-3 (gastric cancer), 0.86 µg/mL in the assay with ACHN (kidney cancer) and 1.4 µg/mL in assay [1].

Consider `CCCCCCCCCCCCS(=O)(=O)N1CC[N+](C)(CC)CC1` [Example 83, 4-(dodecane-1-sulfonyl)-1-ethyl-1-methyl-piperazin-1-ium iodide], for which the 50% growth inhibitory concentration (GI50) came out at 0.61 µg/mL in the assay with PC-3 (prostate cancer), 0.45 µg/mL with NUGC-3 (gastric cancer), 0.69 µg/mL in the assay with ACHN (kidney cancer) and 1.42 µg/mL in assay [1].

For the compound `CCCCCCCCCCCCS(=O)(=O)N1CC[N+](CC)(Cc2ccccc2)CC1` [Example 84, 1-benzyl-4-(dodecane-1-sulfonyl)-1-ethyl-piperazin-1-ium bromide], the GI50 came to 0.74 µg/mL in the assay with PC-3 (prostate cancer), 0.75 µg/mL in the assay on NUGC-3 (gastric cancer), 1.12 µg/mL in the assay with ACHN (kidney cancer) and 1.35 µg/mL in assay [1].

As for `C=CC[N+]1(CC)CCN(S(=O)(=O)CCCCCCCCCCCC)CC1` [Example 85, 1-allyl-4-(dodecane-1-sulfonyl)-1-ethyl-piperazin-1-ium bromide], the concentration for 50% growth inhibition (GI50) was 0.41 µg/mL in the assay on PC-3 (prostate cancer), 0.22 µg/mL in the assay on NUGC-3 (gastric cancer), 0.53 µg/mL in the assay with ACHN (kidney cancer) and 1.01 µg/mL in assay [1].

Consider `CCCCCCCCCCS(=O)(=O)N1CC[N+](C)(Cc2ccc(F)cc2)CC1` [Example 86, 4-(decane-1-sulfonyl)-1-(4-fluorobenzyl)-1-methyl-piperazin-1-ium bromide], for which the concentration for 50% growth inhibition (GI50) with PC-3 (prostate cancer) worked out at 0.88 µg/mL; in the assay with NUGC-3 (gastric cancer) it was 1.99 µg/mL; in the assay with ACHN (kidney cancer), 3.79 µg/mL; in assay [1], 4.48 µg/mL.

As for `CCCCCCCCCCS(=O)(=O)N1CC[N+](CC)(Cc2ccc(F)cc2)CC1` [Example 87, 4-(decane-1-sulfonyl)-1-ethyl-1-(4-fluorobenzyl)-piperazin-1-ium bromide], the 50% growth inhibitory concentration (GI50) was 1.25 µg/mL with PC-3 (prostate cancer), 1.56 µg/mL with NUGC-3 (gastric cancer), over 10 µg/mL in the assay with ACHN (kidney cancer) and over 10 µg/mL in assay [1].

On to `CCCCCCCCCCCCS(=O)(=O)N1CC[N+](C)(Cc2ccc(F)cc2)CC1` [Example 88, 4-(dodecane-1-sulfonyl)-1-(4-fluorobenzyl)-1-methyl-piperazin-1-ium bromide], for which the GI50 stood at 0.68 µg/mL in the assay on PC-3 (prostate cancer), 0.93 µg/mL in the assay on NUGC-3 (gastric cancer), 1.37 µg/mL in the assay with ACHN (kidney cancer) and 1.59 µg/mL in assay [1].

`CCCCCCCCCS(=O)(=O)N1CC[N+](CC)(Cc2cccc([N+](=O)[O-])c2)CC1` [Example 89, 1-ethyl-1-(3-nitrobenzyl)-4-(nonylsulfonyl)piperazin-1-ium bromide]: the GI50 in the assay with PC-3 (prostate cancer) is 4.02 µg/mL; with NUGC-3 (gastric cancer), over 10 µg/mL; with ACHN (kidney cancer) it was over 10 µg/mL; in assay [1] it was over 10 µg/mL.

Turning to `CCCCCCCCCCCCS(=O)(=O)N1CC[N+](C)(Cc2ccc(C)cc2)CC1` [Example 90, 4-(dodecane-1-sulfonyl)-1-methyl-1-(4-methylbenzyl)piperazin-1-ium bromide], the 50% growth inhibitory concentration (GI50) is 1.57 µg/mL in the assay on PC-3 (prostate cancer), 1.98 µg/mL in the assay on NUGC-3 (gastric cancer), 3.22 µg/mL in the assay with ACHN (kidney cancer) and 2.56 µg/mL in assay [1].

Regarding `CCCCCCCCCCS(=O)(=O)N1CC[N+](CC)(Cc2cccc([N+](=O)[O-])c2)CC1` [Example 91, 4-(decane-1-sulfonyl)-1-ethyl-1-(3-nitrobenzyl)piperazin-1-ium bromide], the GI50 in the assay with PC-3 (prostate cancer) was 0.83 µg/mL; in the assay on NUGC-3 (gastric cancer), 1.54 µg/mL; in the assay with ACHN (kidney cancer), 4.82 µg/mL; in assay [1] it was over 10 µg/mL.

With `CCCCCCCCCCCS(=O)(=O)N1CC[N+](CC)(CC)CC1` [Example 92, 1,1-diethyl-4-(undecane-1-sulfonyl)piperazin-1-ium iodide], the 50% growth inhibitory concentration (GI50) with PC-3 (prostate cancer) was found to be 0.45 µg/mL; in the assay with NUGC-3 (gastric cancer), 0.21 µg/mL; in the assay on ACHN (kidney cancer) it was 0.81 µg/mL; in assay [1] it was 1.62 µg/mL.

As to `CCCCCCCCCCCS(=O)(=O)N1CC[N+](C)(CC)CC1` [Example 93, 1-ethyl-1-methyl-4-(undecane-1-sulfonyl)piperazin-1-ium iodide], the GI50 is 0.67 µg/mL with PC-3 (prostate cancer), 0.62 µg/mL in the assay on NUGC-3 (gastric cancer), 1.11 µg/mL in the assay with ACHN (kidney cancer) and 2.71 µg/mL in assay [1].

As to `CCCCCCCCCCCCCCS(=O)(=O)N1CC[N+](CC)(CC)CC1` [Example 94, 1,1-diethyl-4-(tetradecane-1-sulfonyl)piperazin-1-ium iodide], the GI50 turned out to be 0.53 µg/mL in the assay with PC-3 (prostate cancer), 0.37 µg/mL in the assay on NUGC-3 (gastric cancer), 0.31 µg/mL in the assay with ACHN (kidney cancer) and 0.46 µg/mL in assay [1].

For `CCCCCCCCCCCCCCS(=O)(=O)N1CC[N+](C)(CC)CC1` [Example 95, 1-ethyl-1-methyl-4-(tetradecane-1-sulfonyl)piperazin-1-ium iodide], the GI50 in the assay on PC-3 (prostate cancer) came to 0.35 µg/mL; in the assay with NUGC-3 (gastric cancer), 2.24 µg/mL; with ACHN (kidney cancer), 0.46 µg/mL; in assay [1], 0.64 µg/mL.

For the compound `CCCCCCCCCCCCCCCCCCS(=O)(=O)N1CC[N+](C)(Cc2ccc(F)cc2)CC1` [Example 96, 1-(4-fluorobenzyl)-1-methyl-4-(octadecane-1-sulfonyl)piperazin-1-ium bromide], the GI50 came out at 0.48 µg/mL with PC-3 (prostate cancer), 2.73 µg/mL in the assay with NUGC-3 (gastric cancer), 3.25 µg/mL in the assay on ACHN (kidney cancer) and 0.6 µg/mL in assay [1].

Consider `CCCCCCCCCCCCS(=O)(=O)N1CC[N+](CC)(Cc2ccc(F)cc2)CC1` [Example 97, 4-(dodecane-1-sulfonyl)-1-ethyl-1-(4-fluorobenzyl)piperazin-1-ium bromide], for which the 50% growth inhibitory concentration (GI50) in the assay with PC-3 (prostate cancer) was 0.7 µg/mL; in the assay on NUGC-3 (gastric cancer) it was 0.66 µg/mL; in the assay on ACHN (kidney cancer), 1.21 µg/mL; in assay [1], 1.43 µg/mL.

Consider `CCCCCCCCCCCCS(=O)(=O)N1CC[N+](CC)(Cc2cccc([N+](=O)[O-])c2)CC1` [Example 98, 4-(dodecane-1-sulfonyl)-1-ethyl-1-(3-nitrobenzyl)piperazin-1-ium bromide], for which the GI50 in the assay with PC-3 (prostate cancer) was 0.35 µg/mL; in the assay with NUGC-3 (gastric cancer), 0.28 µg/mL; with ACHN (kidney cancer), 1.05 µg/mL; in assay [1], 1.01 µg/mL.

As for `CCCCCCCCCS(=O)(=O)N1CC[N+](C)(CC)CC1` [Example 99, 1-ethyl-1-methyl-4-(nonane-1-sulfonyl)piperazin-1-ium iodide], the concentration for 50% growth inhibition (GI50) (in the assay on PC-3 (prostate cancer); in the assay on NUGC-3 (gastric cancer); in the assay with ACHN (kidney cancer); in assay [1]) was over 10 µg/mL each time.

Consider `CCCCCCCCCS(=O)(=O)N1CC[N+](CC)(Cc2ccccc2)CC1` [Example 100, 1-benzyl-1-ethyl-4-(nonane-1-sulfonyl)piperazin-1-ium bromide], for which the GI50 in the assay with PC-3 (prostate cancer) was 4.08 µg/mL; with NUGC-3 (gastric cancer), 1.73 µg/mL; in the assay on ACHN (kidney cancer) it was over 10 µg/mL; in assay [1], over 10 µg/mL.

`C=CC[N+]1(CC)CCN(S(=O)(=O)CCCCCCCCC)CC1` [Example 101, 1-allyl-1-ethyl-4-(nonane-1-sulfonyl)piperazin-1-ium bromide]: the GI50 was 2.34 µg/mL in the assay on PC-3 (prostate cancer), 3.28 µg/mL with NUGC-3 (gastric cancer), over 10 µg/mL with ACHN (kidney cancer) and over 10 µg/mL in assay [1].
